Reference: US9376675B2, “Method for preserving components of pancreatic juice in a sample, and kit for preserving components of pancreatic juice in a sample” (priority 2012, dated 2016)

Tests used:
[1] = system: Pancreatin (activated pancreatic enzyme); experiment: Protease activity of pancreatin solution (pseudo artificial pancreatic juice), EnzCheck Protease Assay Kit with fluorescently-labeled casein; type: biochemical, pig; conditions: final concentration within range recommended by manufacturers; 37° C. for 2 hours; Ex/Em=485/535 nm
Procedure: A protease inhibitor screen was performed to find an inhibitor targeting a serine protease and having a high inhibitory effect against pancreatic juice. The protease inhibitors used were aprotinin (product of Roche), leupeptin (product of Roche), PMSF (product of Roche), AEBSF (product of Roche), p-APMSF (product of SIGMA), camostat mesilate (Foipan: product of Wako Pure Chemical Industries), gabexate mesilate (FOY: product of Wako Pure Chemical Industries), TLCK (product of SIGMA), and TPCK (product of SIGMA). It is to be noted that TPCK is an amino acid chloromethyl ketone having inhibitory activity against chymotrypsin but having no inhibitory activity against trypsin.
“Pancreatin”, a digestive enzyme prepared from the pig pancreas in which a pancreatic enzyme was present in activated form was used as pseudo artificial pancreatic juice. After addition of protease inhibitors in an amount so that the final concentration thereof would fall within a concentration range recommended by the manufacturers of the inhibitors, the protease activity was measured. The protease activity was measured using EnzCheck Protease Assay Kits (product of Molecular Probes). Described specifically, fluorescently-labeled casein attached to a kit was added to a pancreatin solution containing each protease inhibitor. After incubation at 37° C. for 2 hours, the amount of fluorescence was measured at a fluorescence wavelength of Ex/Em=485/535 nm. As a control, the protease activity of a sample solution (containing no inhibitor) obtained by directly adding fluorescently-labeled casein to pancreatin was measured.
The amount of fluorescence plotted along the ordinate represents the amount of degraded casein and it was approximated as the value of protease activity. The protease inhibitors contained respectively in the pancreatin solutions and final concentrations thereof are plotted along the abscissa. […] These inhibitors are each a sulfonyl fluoride-containing sulfone-based compound.

[2] = system: S100P in human clinical pancreatic juice specimens; experiment: Room temperature storage stability of added S100P standard preparation in human clinical pancreatic juice specimens, S100P ELISA (Example 2); conditions: 25 ng/mL S100P standard added; four human clinical pancreatic juice specimens; 25° C. for 16 hours; AEBSF 4 mM, PMSF 1 mM
Text: While attention was paid to the sulfone-based compounds found to have a high inhibitory effect against digestive enzymes in pancreatic juice in Example 1, the effect of the various sulfone-based compounds on the room temperature stability of S100P (calcium-binding protein) known as a marker protein of pancreatic cancer was studied. This means that by using four human clinical pancreatic juice specimens, whether the concentration of S100P changed or not after addition of a S100P protein standard preparation was studied before and after room temperature storage.
Described specifically, sample solutions were prepared as follows: (1) Sample Solution 1: containing no inhibitor, obtained by mixing 25 ng/mL of an S100P (standard preparation) solution with the human clinical specimens, respectively. (2) Sample Solution 2: AEBSF, obtained by adding AEBSF (final concentration: 4 mM) to Sample Solution 1. […] Then, S100P was detected using CircuLex S100P ELISA Kit (product of Cyclex, Catalogue Number: CY-8060) from solutions obtained by carrying out 10-fold dilution of the sample solutions with a buffer attached to CircuLex S100P ELISA Kit, respectively. As a control, S100P was detected similarly from Sample Solution 1 immediately after preservation (that is, before room temperature storage). […]

[3] = system: S100P in human pancreatic juice specimens 1 and 2; experiment: Room temperature storage stability of added S100P standard preparation in human pancreatic juice specimens 1 and 2, S100P ELISA (Example 4); conditions: 25 ng/mL S100P standard added (exogenous), 25° C. for 16 hours, AEBSF 4 mM, PMSF 1 mM, TLCK 1 mM
Procedure: An effect of a protease inhibitor for storage stability of S100P in a pseudo artificial pancreatic juice and that for storage stability of S100P in a human clinical specimen were compared. As a S100P-containing pseudo artificial pancreatic juice, a solution obtained by adding S100P (standard preparation) to a pancreatin solution to give a concentration of 25 ng/mL was used.
More specifically, sample solutions were prepared as follows: (1) Sample Solution 1: containing no inhibitor, obtained by mixing 25 ng/mL of an S100P (standard preparation) solution with the two human clinical specimens (human pancreatic juice specimens 1 and 2) used in Example 3 and the pseudo artificial pancreatic juice. […]
The concentration of S100P is plotted along the ordinate, while Sample Solutions 1 to 4 using the human pancreatic juice specimens 1 and 2 and the S100P-containing pseudo artificial pancreatic juice (“Without inhibitor”, “AEBSF”, “AEBSF+PMSF”, and “AEBSF+PMSF+TLCK” in the graph) are plotted along the abscissa. […] As a result, in the sample solutions after freeze storage, S100P was detected from both the human pancreatic juice specimen and the pancreatin solution. On the other hand, with regard to the sample solutions after room temperature storage, no S100P was detected from the pancreatin solutions irrespective of the presence or absence or the kind of the protease inhibitor.

[4] = system: S100P in human pancreatic juice specimens; experiment: Room temperature storage stability of S100P in human clinical pancreatic juice specimens versus freeze storage, S100P ELISA (Example 3); conditions: seven human clinical specimens; 25° C. for 16 hours; AEBSF 4 mM, PMSF 1 mM
Procedure: With a view to improving the storage performance of pancreatic proteins further, it was studied whether the storage stability of S100P was influenced by the combined use of the sulfonyl fluoride-containing sulfone-based compound and TLCK, that is, another […] compound. Seven human clinical specimens were used.
Described specifically, sample solutions were prepared as follows: (1) Sample Solution 1: AEBSF, obtained by adding AEBSF (final concentration: 4 mM) to the human clinical specimens. (2) Sample Solution 2: AEBSF+PMSF, obtained by adding AEBSF (final concentration: 4 mM) and PMSF (final concentration: 1 mM) to the human clinical specimens. (3) Sample Solution 3: AEBSF+PMSF+Aprotinin, obtained by adding AEBSF (final concentration: 4 mM), PMSF (final concentration: 1 mM) and Aprotinin (final concentration: 3 μM) to the human clinical specimens. […]
The concentration of S100P is plotted along the ordinate, while Sample Solutions 1 to 5 (“AEBSF”, “AEBSF+PMSF”, “AEBSF+PMSF+Aprotinin”, “AEBSF+PMSF+TPCK”, and “AEBSF+PMSF+TLCK” in the graph) of the human pancreatic juice specimens 1 to 7 are plotted along the abscissa. […] As a result, in the sample solutions after frozen storage, S100P was detected, though varying in amount, from all the human pancreatic juice specimens irrespective of the kind of the protease inhibitor added. […]

Row | Compound | inhibitory effect on protease activity (amount of fluorescence = degraded casein) of pancreatin solution [1] | S100P concentration after room temperature storage [2] | detection amount of S100P after room temperature storage [3] | S100P detection amount after room temperature storage compared with freeze storage [4]
1 | O=S(=O)(F)Cc1ccccc1 [PMSF, phenylmethylsulfonyl fluoride] | markedly high inhibitory effect |  |  | 
2 | NCCc1ccc(S(=O)(=O)F)cc1 [AEBSF, 4-(2-aminoethyl)-benzenesulfonyl fluoride] | markedly high inhibitory effect | S100P was detected from any of the pancreatic juice specimens | detection amount of S100P is greater | the detection amount was very small compared with that after freeze storage
3 | Cc1ccc(S(=O)(=O)N[C@@H](CCCCN)C(=O)CCl)cc1 [TLCK, N-a-tosyl-L-lysine chloromethyl ketone] | not effective inhibitors by themselves |  |  | 
4 | Cl.N=C(N)c1ccc(CS(=O)(=O)F)cc1 [p-APMSF, p-amidinophenylmethanesulfonyl fluoride hydrochloride] | markedly high inhibitory effect |  |  | 
